# Measured values as given in the supplement of paper PMC10307832.
# Legend:
# Assay in all cases: relative viability (nuclei count vs DMSO), 5 days (fraction); higher = more cells survive
# Crenolanib + Bortezomib = compound: CC1(COc2ccc3c(c2)ncn3-c2ccc3cccc(N4CCC(N)CC4)c3n2)COC1 [Crenolanib] + CC(C)C[C@H](NC(=O)[C@H](Cc1ccccc1)NC(=O)c1cnccn1)B(O)O [Bortezomib] (partner 0.002 µM)
# Outline: (§1)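 Lung cancer cell lines were pin-tool dosed in 1536-well plates on the day after seeding, with either a lone drug or a fixed anchor-drug dose plus five library-drug doses (not always all listed) in √10 steps. Nuclei were counted on 4× images after 5 days. Relative viability is the ratio of treated-well to vehicle-well nuclei counts, with each value a median of duplicate plates.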
# Crenolanib + Luminespib = compound: CC1(COc2ccc3c(c2)ncn3-c2ccc3cccc(N4CCC(N)CC4)c3n2)COC1 [Crenolanib] + CCNC(=O)c1noc(-c2cc(C(C)C)c(O)cc2O)c1-c1ccc(CN2CCOCC2)cc1 [Luminespib] (partner 0.01 µM)
# Outline: as §1
# Crenolanib + Olaparib = compound: CC1(COc2ccc3c(c2)ncn3-c2ccc3cccc(N4CCC(N)CC4)c3n2)COC1 [Crenolanib] + O=C(c1cc(Cc2n[nH]c(=O)c3ccccc23)ccc1F)N1CCN(C(=O)C2CC2)CC1 [Olaparib] (partner 8 µM)
# Outline: as §1
# Tivantinib + Crizotinib = compound: O=C1NC(=O)[C@@H](c2cn3c4c(cccc24)CCC3)[C@@H]1c1c[nH]c2ccccc12 [Tivantinib] + C[C@@H](Oc1cc(-c2cnn(C3CCNCC3)c2)cnc1N)c1c(Cl)ccc(F)c1Cl [Crizotinib] (partner 1 µM)
# Outline: as §1
cell line,measurement,setting,value
UMC-11,relative viability,Crenolanib + Bortezomib; first compound 0.01 µM,0.811
same,relative viability,Crenolanib + Bortezomib; first compound 0.03162 µM,0.753
same,relative viability,Crenolanib + Bortezomib; first compound 0.1 µM,0.703
same,relative viability,Crenolanib + Bortezomib; first compound 0.3162 µM,0.752
same,relative viability,Crenolanib + Bortezomib; first compound 1 µM,0.757
same,relative viability,Crenolanib + Luminespib; first compound 0.01 µM,1.06
same,relative viability,Crenolanib + Luminespib; first compound 0.03162 µM,1.02
same,relative viability,Crenolanib + Luminespib; first compound 0.1 µM,1.02
same,relative viability,Crenolanib + Luminespib; first compound 0.3162 µM,1.11
same,relative viability,Crenolanib + Luminespib; first compound 1 µM,1.07
same,relative viability,Crenolanib + Olaparib; first compound 0.01 µM,0.394
same,relative viability,Crenolanib + Olaparib; first compound 0.03162 µM,0.35
same,relative viability,Crenolanib + Olaparib; first compound 0.1 µM,0.379
same,relative viability,Crenolanib + Olaparib; first compound 0.3162 µM,0.556
same,relative viability,Crenolanib + Olaparib; first compound 1 µM,0.341
same,relative viability,Tivantinib + Crizotinib; first compound 0.01 µM,0.662
same,relative viability,Tivantinib + Crizotinib; first compound 0.03162 µM,0.601
same,relative viability,Tivantinib + Crizotinib; first compound 0.1 µM,0.637
same,relative viability,Tivantinib + Crizotinib; first compound 0.3162 µM,0.531
